According to patent US11713338B2, “Cyclic peptides multimers targeting α-4-β-7 integrin” (priority 2016, dated 2023):

Experiments:
[1] = target: T1, recombinant integrin α4β7 (Homo sapiens, UniProt P13612+P26010, DEL724-798); assay: Integrin α4β7—MAdCAM-1 ELISA competition assay; assay type: binding; settings: read-out: ELISA α4β7 Assay IC50
T1 construct: purchased R&D Systems 5397-A3-050
T1 sequence (P13612 34-970 limits assumed): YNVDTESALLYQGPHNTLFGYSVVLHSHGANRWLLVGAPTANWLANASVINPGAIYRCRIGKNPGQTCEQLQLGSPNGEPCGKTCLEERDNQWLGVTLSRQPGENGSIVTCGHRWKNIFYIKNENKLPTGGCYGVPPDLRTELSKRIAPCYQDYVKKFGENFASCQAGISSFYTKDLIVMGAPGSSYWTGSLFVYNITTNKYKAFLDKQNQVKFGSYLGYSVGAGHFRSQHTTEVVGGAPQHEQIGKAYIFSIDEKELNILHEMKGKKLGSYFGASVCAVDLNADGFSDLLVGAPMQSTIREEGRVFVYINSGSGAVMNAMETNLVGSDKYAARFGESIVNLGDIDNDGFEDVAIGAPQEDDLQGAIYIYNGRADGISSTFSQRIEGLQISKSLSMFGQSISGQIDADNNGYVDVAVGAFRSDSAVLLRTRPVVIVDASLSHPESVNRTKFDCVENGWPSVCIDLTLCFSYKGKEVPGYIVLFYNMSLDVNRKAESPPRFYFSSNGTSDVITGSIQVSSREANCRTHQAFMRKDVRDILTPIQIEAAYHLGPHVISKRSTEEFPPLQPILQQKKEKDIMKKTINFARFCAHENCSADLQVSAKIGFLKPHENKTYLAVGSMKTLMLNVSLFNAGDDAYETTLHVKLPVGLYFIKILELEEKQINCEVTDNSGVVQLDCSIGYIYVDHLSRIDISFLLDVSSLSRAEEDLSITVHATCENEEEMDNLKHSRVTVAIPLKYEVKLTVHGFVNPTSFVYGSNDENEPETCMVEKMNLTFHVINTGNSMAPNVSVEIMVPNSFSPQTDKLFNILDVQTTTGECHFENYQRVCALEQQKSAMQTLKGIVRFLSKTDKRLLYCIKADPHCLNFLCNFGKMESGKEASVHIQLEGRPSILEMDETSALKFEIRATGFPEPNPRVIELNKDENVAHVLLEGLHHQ
T1 sequence (P26010 20-723 limits assumed): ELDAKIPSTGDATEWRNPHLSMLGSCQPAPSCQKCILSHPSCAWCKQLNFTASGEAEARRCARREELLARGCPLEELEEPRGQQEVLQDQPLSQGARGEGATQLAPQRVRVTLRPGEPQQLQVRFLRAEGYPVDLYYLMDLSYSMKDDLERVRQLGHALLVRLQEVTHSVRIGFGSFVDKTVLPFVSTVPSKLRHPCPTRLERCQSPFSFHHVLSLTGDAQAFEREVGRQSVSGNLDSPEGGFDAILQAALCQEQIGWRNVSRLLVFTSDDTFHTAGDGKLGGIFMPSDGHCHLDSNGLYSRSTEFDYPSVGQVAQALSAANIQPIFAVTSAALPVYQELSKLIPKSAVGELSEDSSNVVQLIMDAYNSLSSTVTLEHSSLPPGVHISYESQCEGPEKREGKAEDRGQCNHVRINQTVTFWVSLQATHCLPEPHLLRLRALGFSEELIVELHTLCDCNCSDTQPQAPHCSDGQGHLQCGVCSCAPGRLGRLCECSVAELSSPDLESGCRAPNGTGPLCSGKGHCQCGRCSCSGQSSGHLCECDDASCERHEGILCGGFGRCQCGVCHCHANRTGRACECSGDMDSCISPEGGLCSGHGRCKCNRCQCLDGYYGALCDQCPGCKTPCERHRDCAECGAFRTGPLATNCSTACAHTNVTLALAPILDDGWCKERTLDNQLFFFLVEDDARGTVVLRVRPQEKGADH

[2] = target: T2, recombinant integrin α4β1 (Homo sapiens, UniProt P05556+P13612); assay: Integrin α4β1—VCAM-1 competition ELISA; assay type: binding; settings: for ELISA Assay Ratio β1/β7: ratio of ELISA IC50s, α4β1 over α4β7; for IC50: read-out: ELISA α4β1 Assay IC50
T2 construct: purchased R&D Systems 5397-A3-050
T2 sequence (P05556 21-728 limits assumed, one chain of several): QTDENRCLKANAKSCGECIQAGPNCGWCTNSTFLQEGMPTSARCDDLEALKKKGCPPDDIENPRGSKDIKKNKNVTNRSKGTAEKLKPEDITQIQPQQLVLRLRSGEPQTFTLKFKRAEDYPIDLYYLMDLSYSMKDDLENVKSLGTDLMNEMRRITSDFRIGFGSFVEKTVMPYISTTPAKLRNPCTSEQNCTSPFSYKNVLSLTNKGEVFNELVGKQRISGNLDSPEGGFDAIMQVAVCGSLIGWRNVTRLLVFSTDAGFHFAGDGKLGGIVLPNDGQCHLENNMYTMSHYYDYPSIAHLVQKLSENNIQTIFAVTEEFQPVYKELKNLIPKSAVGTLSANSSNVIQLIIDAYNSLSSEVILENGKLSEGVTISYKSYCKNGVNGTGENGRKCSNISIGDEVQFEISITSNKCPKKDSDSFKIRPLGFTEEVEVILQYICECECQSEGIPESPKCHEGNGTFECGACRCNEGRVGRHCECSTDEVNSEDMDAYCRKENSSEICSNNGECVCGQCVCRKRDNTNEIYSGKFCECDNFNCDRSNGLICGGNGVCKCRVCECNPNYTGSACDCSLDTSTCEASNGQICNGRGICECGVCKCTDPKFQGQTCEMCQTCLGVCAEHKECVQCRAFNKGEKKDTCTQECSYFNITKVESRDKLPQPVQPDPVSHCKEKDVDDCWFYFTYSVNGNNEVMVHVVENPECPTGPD
Outline: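 Compound dilutions added to coated plate and shaken at room temperature for 2 h (300 rpm) to binding equilibrium. Wash buffer: 50 mM Tris, 100 mM NaCl, 1 mM MnCl2, 0.05% Tween. Bound Fc-tagged ligand detected with anti-human IgG Fc-HRP, 1 h at room temperature.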

| SMILES | IC50 [1] | ELISA Assay Ratio β1/β7 [2] | IC50 [2] |
| --- | --- | --- | --- |
| CC(C)C[C@@H]1NC(=O)c2ccc(-c3ccc(N4CCN(C(=O)c5nccnc5C(=O)N5CCN(c6ccc(-c7ccc8cc7CNC(=O)[C@@H]7CCCN7[C@H](C(=O)NC(C)(C)C)[C@H](C)NC(=O)[C@H]([C@@H](C)O)NC(=O)[C@H](CC(=O)O)NC(=O)[C@H](CC(C)C)NC8=O)cc6)CC5)CC4)cc3)c(c2)CNC(=O)[C@@H]2CCCN2[C@H](C(=O)NC(C)(C)C)[C@H](C)NC(=O)[C@H]([C@@H](C)O)NC(=O)[C@H](CC(=O)O)NC1=O [Compound 467] | 8.6 nM | 0.1 | 1 nM |
| CC(C)C[C@@H]1NC(=O)c2ccc(-c3ccc(N4CCN(C(=O)c5ccc(-c6cccc(C(=O)N7CCN(c8ccc(-c9ccc%10cc9CNC(=O)[C@@H]9CCCN9[C@H](C(=O)NC(C)(C)C)[C@H](C)NC(=O)[C@H]([C@@H](C)O)NC(=O)[C@H](CC(=O)O)NC(=O)[C@H](CC(C)C)NC%10=O)cc8)CC7)n6)nc5)CC4)cc3)c(c2)CNC(=O)[C@@H]2CCCN2[C@H](C(=O)NC(C)(C)C)[C@H](C)NC(=O)[C@H]([C@@H](C)O)NC(=O)[C@H](CC(=O)O)NC1=O [Compound 466] | 14 nM | 0.3 | 4.2 nM |
